The results in this text go back to patent publication US8895568B2, “Compositions comprising substituted pteridines as agrochemicals” (Dow AgroSciences LLC, priority 2009, dated 2014).

Where two headings read alike, the source gives them in different places.

Common to all, as to assay type: in vivo
One experiment concerns Colletotricum lagenarium. Put plainly: Cucumber Anthracnose (COLLLA), foliar spray, percent disease control. As to the method:
The activity of the compounds as effective fungicides was determined by applying the compounds to plants and observing control of fungal disease. The compounds were formulated at 200 ppm in 10 vol. % acetone plus 90 vol. % Triton X water (deionized water 99.99 wt %+0.01 wt % Triton X100), giving a “formulated test compound.” In a few cases, compounds were formulated at 75 or 8.3 ppm rather than 200 ppm in 10 vol. % acetone plus 90 vol. % Triton X water (deionized water 99.99 wt. %+0.01 wt. % Triton X100), giving a “formulated test compound.” Formulated test compounds were applied to plants using a turn table sprayer fitted with two opposing air atomization nozzles which delivered approximately 1500 L/ha of spray volume. All plants were inoculated with spores of the fungus the day after treatment, then incubated in an environment conducive to disease development. Disease severity was evaluated 4 to 15 days later, depending on the disease and the speed of disease development. The following experiments were performed in the laboratory to determine the fungicidal efficacy of the compounds of the invention. Cucumber Anthracnose (causal agent Colletotricum lagenarium; Bayer code COLLLA): Cucumber plants (variety Bush Champion) were grown from seed in a soil-less peat-based potting mixture (Metromix) until the first true leaf was 20-80% expanded. Each pot contained 1 seedling. These plants were sprayed until wet with the formulated test compound. On the following day, the leaves were inoculated with an aqueous spore suspension of Colletotricum lagenarium and the plants were kept in high humidity for one day to permit spores to germinate and infect the leaf. The plants were then transferred to a growth chamber until disease developed on untreated control plants. […] The effectiveness of the test compounds at controlling disease when sprayed on leaves was determined by assessing the severity of disease on treated plants, then converting the severity to percent control based on the level of disease on untreated, inoculated plants. Data are the level (in percent) at which the given disease was controlled when the given compound was applied to the foliage of the plants at 200 ppm. In a few cases (noted in the table) the compound was applied to the plants at 75 ppm or 8.3 ppm.

Experiment [1] deals with Pseudoperonospora cubensis. Put plainly: Cucumber Downy Mildew (PSPECU), foliar spray, percent disease control. Conditions: read-out: PSPECU percent control. As to the method:
The activity of the compounds as effective fungicides was determined by applying the compounds to plants and observing control of fungal disease. The compounds were formulated at 200 ppm in 10 vol. % acetone plus 90 vol. % Triton X water (deionized water 99.99 wt %+0.01 wt % Triton X100), giving a “formulated test compound.” In a few cases, compounds were formulated at 75 or 8.3 ppm rather than 200 ppm in 10 vol. % acetone plus 90 vol. % Triton X water (deionized water 99.99 wt. %+0.01 wt. % Triton X100), giving a “formulated test compound.” Formulated test compounds were applied to plants using a turn table sprayer fitted with two opposing air atomization nozzles which delivered approximately 1500 L/ha of spray volume. All plants were inoculated with spores of the fungus the day after treatment, then incubated in an environment conducive to disease development. Disease severity was evaluated 4 to 15 days later, depending on the disease and the speed of disease development. The following experiments were performed in the laboratory to determine the fungicidal efficacy of the compounds of the invention. Cucumber Downy Mildew (causal agent Pseudoperonospora cubensis; Bayer code […]): Cucumber plants (variety Bush Champion) were grown from seed in a soil-less peat-based potting mixture (Metromix) until the first true leaf was 20-80% expanded. Each pot contained 1 seedling. These plants were sprayed until wet with the formulated test compound. On the following day, the leaves were inoculated with an aqueous suspension of downy mildew sporangia and the plants were kept in high humidity for one day to permit sporangia to germinate and infect the leaf. The plants were then incubated in a growth chamber until disease developed on untreated control plants. […] The effectiveness of the test compounds at controlling disease when sprayed on leaves was determined by assessing the severity of disease on treated plants, then converting the severity to percent control based on the level of disease on untreated, inoculated plants. Data are the level (in percent) at which the given disease was controlled when the given compound was applied to the foliage of the plants at 200 ppm. In a few cases (noted in the table) the compound was applied to the plants at 75 ppm or 8.3 ppm.

For another experiment, the system named is Cochliobolus sativus. The experiment is described as follows: Spot Blotch of Wheat (COCHSA), foliar spray, percent disease control. Particulars: Bipolaris sorokiniana, read-out: COCHSA percent control.

Take `N#Cc1c(Cl)cccc1Oc1ccc(CCNc2ncnc3nccnc23)cc1` [Compound 61]: the pest or weed control at 200 µg/mL was 0 to 49% in the experiment on Colletotricum lagenarium (foliar), 80 to 100% in experiment [1] (foliar) and 0 to 49% with Cochliobolus sativus (foliar).

On to `CC(C)OC(=O)c1ccnc(Oc2ccc(CCNc3ncnc4nccnc34)cc2)c1` [Compound 173], for which the figures for the pest or weed control at 200 µg/mL (with Colletotricum lagenarium (foliar); in experiment [1] (foliar); in the experiment with Cochliobolus sativus (foliar)) were 0 to 49%, 80 to 100% and 0 to 49%, respectively.

In the case of `CC(C)Oc1cc(CCNc2ncnc3nccnc23)ccc1Oc1cc(C(F)(F)F)ccn1` [Compound 180, {2-[3-(Isopropoxy)-4-(4-trifluoromethyl-pyridin-2-yloxy)-phenyl]-ethyl}-pteridin-4-ylamine], the pest or weed control at 200 µg/mL in the experiment with Colletotricum lagenarium (foliar) was 50 to 79%; in experiment [1] (foliar) it was 80 to 100%; with Cochliobolus sativus (foliar) it was 0 to 49%.

As to `COc1ccc(C(C)Nc2ncnc3nccnc23)cc1` (stereo not drawn) [Compound 17], the pest or weed control at 200 µg/mL with Colletotricum lagenarium (foliar) lay within 50 to 79%; in experiment [1] (foliar), 80 to 100%; with Cochliobolus sativus (foliar) it was 0 to 49%.

As for `CC(C)(C)COC(=O)c1ccnc(Oc2ccc(CCNc3ncnc4nccnc34)cc2)c1` [Compound 182], the pest or weed control at 200 µg/mL in the experiment on Colletotricum lagenarium (foliar) fell in the range of 0 to 49%; in experiment [1] (foliar), 80 to 100%; in the experiment with Cochliobolus sativus (foliar), 0 to 49%.

As to `COc1ccc(CCNc2ncnc3nccnc23)cc1Br` [Compound 210], the pest or weed control at 200 µg/mL in the experiment on Colletotricum lagenarium (foliar spray) fell in the range of 0 to 49%; in experiment [1] (foliar spray) it was 80 to 100%; in the experiment on Cochliobolus sativus (foliar spray) it was 0 to 49%.

On to `CC(C)Oc1cc(CCNc2ncnc3nccnc23)ccc1Oc1cc(C(C)(F)F)ccn1` [Compound 195], for which the pest or weed control at 200 µg/mL lay in the range of 50 to 79% in the experiment on Colletotricum lagenarium (foliar), 80 to 100% in experiment [1] (foliar) and 0 to 49% in the experiment on Cochliobolus sativus (foliar).

On to `COc1cc(CCNc2ncnc3nccnc23)cc(OC)c1O` [Compound 181], for which the pest or weed control at 200 µg/mL (in the experiment with Colletotricum lagenarium (foliar); in experiment [1] (foliar); in the experiment with Cochliobolus sativus (foliar)) was 0 to 49% in each case.

In the case of `Cc1c(CCNc2ncnc3nccnc23)ccc(Oc2c(F)cnc(C(F)(F)F)c2F)c1C` [Compound 149], the pest or weed control at 200 µg/mL was 0 to 49% with Colletotricum lagenarium (foliar), 80 to 100% in experiment [1] (foliar) and 0 to 49% in the experiment on Cochliobolus sativus (foliar).

Turning to `FC(F)(F)c1ccnc(Cl)c1Oc1ccc(CCNc2ncnc3nccnc23)cc1` [Compound 56], the pest or weed control at 200 µg/mL in the experiment with Colletotricum lagenarium (foliar) lay in the range of 0 to 49%; in experiment [1] (foliar), 50 to 79%; with Cochliobolus sativus (foliar), 0 to 49%.

Regarding `Oc1ccc(OCCNc2ncnc3nccnc23)cc1` [Compound 80], the pest or weed control at 200 µg/mL (in the experiment with Colletotricum lagenarium (foliar); in experiment [1] (foliar); in the experiment on Cochliobolus sativus (foliar)) was 0 to 49% each time.

For the compound `Clc1nccc(Oc2ccc(CCNc3ncnc4nccnc34)cc2)n1` [Compound 24], the pest or weed control at 200 µg/mL was in the range of 50 to 79% in the experiment on Colletotricum lagenarium (foliar), 80 to 100% in experiment [1] (foliar) and 0 to 49% with Cochliobolus sativus (foliar).

Consider `FC(F)(F)c1ccnc(Oc2ccc(OCCNc3ncnc4nccnc34)cc2)c1` [Compound 83], for which the pest or weed control at 200 µg/mL in the experiment on Colletotricum lagenarium (foliar) was 80 to 100%; in experiment [1] (foliar), 80 to 100%; in the experiment with Cochliobolus sativus (foliar) it was 0 to 49%.

In the case of `COc1cc(C(F)(F)F)cc(Oc2cc(C)c(CCNc3ncnc4nccnc34)cc2C)n1` [Compound 179], the pest or weed control at 200 µg/mL (with Colletotricum lagenarium (foliar); in experiment [1] (foliar); in the experiment on Cochliobolus sativus (foliar)) was 0 to 49% throughout.

Turning to `[O-][n+]1ccnc(Oc2ccc(CCNc3ncnc4nccnc34)cc2)c1` [Compound 29], the values for the pest or weed control at 200 µg/mL (in the experiment with Colletotricum lagenarium (foliar); in experiment [1] (foliar); in the experiment with Cochliobolus sativus (foliar)) were 0 to 49%, 80 to 100% and 0 to 49%, respectively.

For `COc1cc(CCNc2ncnc3nccnc23)ccc1O` [Compound 37], the pest or weed control at 200 µg/mL (in the experiment on Colletotricum lagenarium (foliar); in experiment [1] (foliar); in the experiment on Cochliobolus sativus (foliar)) was 0 to 49% throughout.

As for `CCc1ccc(Oc2ccc(CCN(C(=O)OC(C)(C)C)c3ncnc4nccnc34)cc2)cc1` [Compound 139], the pest or weed control at 200 µg/mL (in the experiment on Colletotricum lagenarium (foliar); in experiment [1] (foliar); in the experiment on Cochliobolus sativus (foliar)) was 0 to 49% throughout.

Regarding `CCOC(=O)c1ccnc(Oc2ccc(CCNc3ncnc4nccnc34)cc2)c1` [Compound 183], the pest or weed control at 200 µg/mL in the experiment with Colletotricum lagenarium (foliar) fell in the range of 0 to 49%; in experiment [1] (foliar), 80 to 100%; in the experiment with Cochliobolus sativus (foliar), 0 to 49%.

Take `O=Cc1cc(Cl)cnc1Oc1ccc(CCNc2ncnc3nccnc23)cc1` [Compound 102]: the pest or weed control at 200 µg/mL in the experiment on Colletotricum lagenarium (foliar) is 0 to 49%; in experiment [1] (foliar), 80 to 100%; in the experiment on Cochliobolus sativus (foliar), 0 to 49%.

For the compound `COc1nsc(Oc2ccc(CCNc3ncnc4nccnc34)cc2)n1` [Compound 21], the figures for the pest or weed control at 200 µg/mL (in the experiment with Colletotricum lagenarium (foliar); in experiment [1] (foliar); in the experiment with Cochliobolus sativus (foliar)) were 50 to 79%, 50 to 79% and 0 to 49%, respectively.

With `N#Cc1c(Cl)cncc1Oc1ccc(CCNc2ncnc3ncc(Cl)nc23)cc1` [Compound 119], the pest or weed control at 200 µg/mL (in the experiment on Colletotricum lagenarium (foliar); in experiment [1] (foliar); in the experiment with Cochliobolus sativus (foliar)) was 0 to 49% throughout.

Regarding `CON=C(C)c1ccnc(Oc2ccc(CCNc3ncnc4nccnc34)cc2)c1` [Compound 63], the pest or weed control at 200 µg/mL lay within 0 to 49% in the experiment with Colletotricum lagenarium (foliar), 80 to 100% in experiment [1] (foliar) and 0 to 49% with Cochliobolus sativus (foliar).

With `CC(C)(C)c1cc[n+]([O-])c(Oc2ccc(CCNc3ncnc4nccnc34)cc2)c1` [Compound 172, {2-[4-(4-tert-Butyl-1-oxypyridin-2-yloxy)-phenyl]-ethyl}-pteridin-4-ylamine], the figures for the pest or weed control at 200 µg/mL (in the experiment on Colletotricum lagenarium (foliar); in experiment [1] (foliar); with Cochliobolus sativus (foliar)) were 0 to 49%, 80 to 100% and 0 to 49%, respectively.

In the case of `Oc1ccc(CCNc2ncnc3nccnc23)cc1Br` [Compound 211], the pest or weed control at 200 µg/mL (in the experiment on Colletotricum lagenarium (foliar spray); in experiment [1] (foliar spray); in the experiment on Cochliobolus sativus (foliar spray)) was 0 to 49% each time.

As for `COc1ccc(CCNc2ncnc3nccnc23)cc1Cl` [Compound 158], the pest or weed control at 200 µg/mL (in the experiment with Colletotricum lagenarium (foliar); in experiment [1] (foliar); with Cochliobolus sativus (foliar)) was 0 to 49% each time.

For `FC(F)(F)c1ccc(Oc2ccc(CCNc3ncnc4ncc(Cl)nc34)cc2)nc1` [Compound 124], the pest or weed control at 200 µg/mL fell in the range of 0 to 49% with Colletotricum lagenarium (foliar), 80 to 100% in experiment [1] (foliar) and 0 to 49% in the experiment on Cochliobolus sativus (foliar).

Consider `CC(C)(C)c1ccnc(Oc2ccc(CCNc3ncnc4nccnc34)cc2)c1` [Compound 207, {2-[4-(4-tert-Butylpyridin-2-yloxy)-phenyl]-ethyl}-pteridin-4-ylamine], for which the pest or weed control at 200 µg/mL in the experiment with Colletotricum lagenarium (foliar spray) was in the range of 0 to 49%; in experiment [1] (foliar spray), 80 to 100%; in the experiment with Cochliobolus sativus (foliar spray), 0 to 49%.

Consider `Fc1cnc(C(F)(F)F)c(F)c1Oc1cccc(CCNc2ncnc3nccnc23)c1` [Compound 71], for which the pest or weed control at 200 µg/mL (in the experiment with Colletotricum lagenarium (foliar); in experiment [1] (foliar); in the experiment with Cochliobolus sativus (foliar)) was 0 to 49% in each case.

`CC(C)Cc1nnc(Oc2ccc(CCNc3ncnc4nccnc34)cc2)s1` [Compound 26]: the pest or weed control at 200 µg/mL in the experiment on Colletotricum lagenarium (foliar) lay in the range of 0 to 49%; in experiment [1] (foliar) it was 80 to 100%; in the experiment with Cochliobolus sativus (foliar) it was 0 to 49%.
